Marks after values point to notes of the source that are not given here.
Assays:
PDI = PDI (Homo sapiens, UniProt P07237); experiment: binding to PDI, sPIF compared to scrambled PIF
Description: (FIG. 2). […] (FIG. 3). […] (FIG. 4). […] Thus dependent on the target Kv1.3 or IDE the mutated PIF-1 can have a target-specific effect which can also translate to diverse biological activity.

EAE = experiment: PLP139-151 induced EAE, episodic treatment, paralysis scores; details: for MCE (mean clinical score at end) / MCS (mean clinical score) / PP (mean peak paralysis score): short term

PDI, sequence (P07237 18-508, species assumed): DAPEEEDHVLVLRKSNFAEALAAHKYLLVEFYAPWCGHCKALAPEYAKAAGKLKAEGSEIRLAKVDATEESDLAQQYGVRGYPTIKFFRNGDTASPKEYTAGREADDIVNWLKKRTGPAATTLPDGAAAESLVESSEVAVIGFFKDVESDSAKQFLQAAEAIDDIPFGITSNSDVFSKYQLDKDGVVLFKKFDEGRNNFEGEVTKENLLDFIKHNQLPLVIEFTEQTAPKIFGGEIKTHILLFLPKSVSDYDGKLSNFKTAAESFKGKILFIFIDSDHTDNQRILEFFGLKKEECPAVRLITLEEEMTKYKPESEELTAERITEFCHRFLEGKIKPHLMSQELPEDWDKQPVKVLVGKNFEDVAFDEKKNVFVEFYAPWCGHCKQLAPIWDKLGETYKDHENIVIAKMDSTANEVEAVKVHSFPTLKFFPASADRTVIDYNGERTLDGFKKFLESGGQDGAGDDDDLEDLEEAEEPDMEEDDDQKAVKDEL

interaction with PDI target (PDI) | Substance | total recovery from paraplegia (stage 4/5) (EAE; episodic treatment) [%] | mice disease free at the end of the study (EAE; long-term, day 50) | mice that died (EAE; long-term, day 50) | mice that died (EAE; medium term) | paralysis score (EAE; medium term) | mice with paralysis reversed / disease free (EAE; medium term, day 41) | mice free of paralysis at the end of the first remission (EAE; short term study) | MCE (mean clinical score at end) (EAE; Experiment 1) | MCS (mean clinical score) (EAE; Experiment 1) | PP (mean peak paralysis score) (EAE; Experiment 1) | MCE (mean clinical score at end) (EAE; Experiment 2) | MCS (mean clinical score) (EAE; Experiment 2) | PP (mean peak paralysis score) (EAE; Experiment 2)
greatly reduced | GRVDPSNKSMPKDIA (scrPIF-1 (15)) [scrambled PIF] |  |  |  |  |  |  |  |  |  |  |  |  | 
 | Glatiramer acetate [GA] | 12.5 | 1/9 | three | one | increased | 1/7 | none | 1.3 +/− 0.4 | 1.58 +/− 0.15 | 2.4 +/− 0.4 | 0.8 +/− 0.2* | 1.4 +/− 0.27 | 2.5 +/− 0.4

Source: US11090355B2, “Compositions and methods for the treatment of neurodamage” (BIOINCEPT, LLC, priority 2015, dated 2021)
